Experimental data: US11505547B2, “Compounds” (STEP PHARMA S.A.S., priority 2017, dated 2022)

Target: T1, human CTPS1 (Homo sapiens, UniProt P17812)
T1 construct: purchased Proteros biostructures GmbH
T1 sequence (P17812 1-591): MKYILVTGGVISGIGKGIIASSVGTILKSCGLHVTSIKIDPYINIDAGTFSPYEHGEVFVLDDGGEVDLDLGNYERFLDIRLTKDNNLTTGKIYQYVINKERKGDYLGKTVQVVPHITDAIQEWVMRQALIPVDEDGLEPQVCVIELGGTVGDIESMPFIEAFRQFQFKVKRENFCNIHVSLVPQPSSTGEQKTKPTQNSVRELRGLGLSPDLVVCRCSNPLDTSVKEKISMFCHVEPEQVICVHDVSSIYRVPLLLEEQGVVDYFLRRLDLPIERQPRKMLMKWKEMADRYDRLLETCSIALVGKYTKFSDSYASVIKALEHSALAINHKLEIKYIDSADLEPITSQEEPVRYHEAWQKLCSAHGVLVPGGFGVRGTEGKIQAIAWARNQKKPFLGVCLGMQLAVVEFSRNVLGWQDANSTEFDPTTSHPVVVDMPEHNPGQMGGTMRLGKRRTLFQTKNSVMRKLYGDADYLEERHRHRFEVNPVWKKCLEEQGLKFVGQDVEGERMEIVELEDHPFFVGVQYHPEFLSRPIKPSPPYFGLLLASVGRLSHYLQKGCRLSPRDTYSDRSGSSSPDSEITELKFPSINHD
Assay: Human CTPS1 enzyme inhibition, ADP-Glo Max assay
Type: biochemical
Details: human full length CTPS1, read-out: CTPS1 (Human CTPS1 Enzyme Inhibition data grouped by potency range, IC50)
Procedure: Biological Example 1—Human CTPS1 Enzyme Inhibition
The enzyme inhibitory activities of compounds invented against the target of interest were determined using the ADP-Glo™ Max assay (Promega, UK). Assays for human CTPS1 were performed in 1× assay buffer containing 50 mM Tris, 10 mM MgCl2, 0.01% Tween-20, pH to 8.0 accordingly. Finally, immediately before use, L-cysteine was added to the 1× assay buffer to a final concentration of 2 mM. All reagents are from Sigma-Aldrich unless specified otherwise. Human full length active C-terminal FLAG-Hiss-tag CTPS1 (UniProtKB-P17812, CTPS[1-591]-[…]) was obtained from Proteros biostructures GmbH.
3× human CTPS1 protein was prepared in 1× assay buffer to the final working protein concentration required for the reaction. A 2 uL volume per well of 3× human CTPS1 protein was mixed with 2 uL per well of 3× test compound (compound prepared in 1× assay buffer to an appropriate final 3× compound concentration respective to the concentration response curve designed for the compounds under test) for 10 minutes at 25° C. The enzymatic reaction was then initiated by addition of a 2 uL per well volume of a pre-mixed substrate mix (UltraPure ATP from ADP-Glo™ Max kit (0.31 mM), GTP (0.034 mM), UTP (0.48 mM) and L-glutamine (0.186 mM)) and the mixture was incubated for an appropriate amount of time within the determined linear phase of the reaction at 25° C. under sealed plate conditions with constant agitation at 500 revolutions per minute (rpm). ADP-GIo™ Max reagent was added for 60 minutes (6 uL per well) and subsequently ADP-Glo™ Max development reagent was added for 60 minutes (12 uL per well) prior to signal detection in a microplate reader (EnVision® Multilabel Reader, Perkin Elmer). Following each reagent addition over the course of the assay, assay plates were pulse centrifuged for 30 seconds at 500 rpm.
In all cases, the enzyme converts ATP to ADP and the ADP-Glo™ Max reagent subsequently depletes any remaining endogenous ATP in the reaction system. The ADP-Glo™ Max detection reagent converts the ADP that has been enzymatically produced back into ATP and using ATP as a substrate together with luciferin for the enzyme luciferase, light is generated which produces a detectable luminescence. […] The percentage inhibition produced by each concentration of compound was calculated using the equation shown below: […]
Percentage inhibition was then plotted against compound concentration, and the 50% inhibitory concentration (IC50) was determined from the resultant concentration-response curve.

IC50 | Structure (SMILES)
0.1 to 1 µM | CCC(CC)(NC(=O)c1ccc(-c2cncc(F)c2)cc1)c1csc(NS(=O)(=O)C2CC2)n1 [Example R16, N-(3-(2-(cyclopropanesulfonamido)thiazol-4-yl)pentan-3-yl)-4-(5-fluoropyridin-3-yl)benzamide]
0.1 to 1 µM | CCC(CC)(NC(=O)c1ccc(-c2cncc(C)c2)cc1)c1csc(NS(=O)(=O)C2CC2)n1 [Example R17, N-(3-(2-(cyclopropanesulfonamido)thiazol-4-yl)pentan-3-yl)-4-(5-methylpyridin-3-yl)benzamide]
0.1 to 1 µM | CCC(CC)(NC(=O)c1ccc(-c2cccnc2)cc1)c1csc(NS(=O)(=O)C2CC2)n1 [Example R18, N-(3-(2-(cyclopropanesulfonamido)thiazol-4-yl)pentan-3-yl)-4-(pyridin-3-yl)benzamide]
< 0.1 µM | CCC(CC)(NC(=O)c1ccc(-c2cncc(C(F)(F)F)n2)cc1)c1csc(NS(=O)(=O)C2CC2)n1 [Example R19, N-(3-(2-(cyclopropanesulfonamido)thiazol-4-yl)pentan-3-yl)-4-(6-(trifluoromethyl)pyrazin-2-yl)benzamide]
< 0.1 µM | CCC(CC)(NC(=O)c1ccc(-c2cncc(Cl)n2)cc1)c1csc(NS(=O)(=O)C2CC2)n1 [Example R20, 4-(6-chloropyrazin-2-yl)-N-(3-(2-(cyclopropanesulfonamido)thiazol-4-yl)pentan-3-yl)benzamide]
< 0.1 µM | CCC(CC)(NC(=O)c1ccc(-c2cncc(C)n2)cc1)c1csc(NS(=O)(=O)C2CC2)n1 [Example R21, N-(3-(2-(cyclopropanesulfonamido)thiazol-4-yl)pentan-3-yl)-4-(6-methylpyrazin-2-yl)benzamide]
0.1 to 1 µM | CCC(CC)(NC(=O)c1ccc(-c2cnccn2)cc1)c1csc(NS(=O)(=O)C2CC2)n1 [Example R22, N-(3-(2-(cyclopropanesulfonamido)thiazol-4-yl)pentan-3-yl)-4-(pyrazin-2-yl)benzamide]
0.1 to 1 µM | CCOc1cncc(-c2cnc(C(=O)NC(C)(C)c3csc(NS(=O)(=O)C4CC4)n3)c(F)c2)n1 [Example R23, N-(2-(2-(cyclopropanesuIfonamido)thiazol-4-yl)propan-2-yl)-5-(6-ethoxypyrazin-2-yl)-3-fluoropicolinamide]
0.1 to 1 µM | CC(C)(NC(=O)c1ccc(-c2cncc(C(F)(F)F)n2)cn1)c1csc(NS(=O)(=O)C2CC2)n1 [Example R24, N-(2-(2-(cyclopropanesulfonamido)thiazol-4-yl)propan-2-yl)-5-(6-(trifluoromethyl)pyrazin-2-yl)picolinamide]
0.1 to 1 µM | CC(C)(NC(=O)c1ccc(-c2cncc(Cl)n2)cn1)c1csc(NS(=O)(=O)C2CC2)n1 [Example R25, 5-(6-chloropyrazin-2-yl)-N-(2-(2-(cyclopropanesulfonamido)thiazol-4-yl)propan-2-yl)picolinamide]
0.1 to 1 µM | CCOc1cncc(-c2ccc(C(=O)NC(C)(C)c3csc(NS(=O)(=O)C4CC4)n3)nc2)n1 [Example R26, N-(2-(2-(cyclopropanesulfonamido)thiazol-4-yl)propan-2-yl)-5-(6-ethoxypyrazin-2-yl)picolinamide]
10 to 21 µM | CC(C)(NC(=O)c1ccc(-c2ccccn2)nc1)c1csc(NS(=O)(=O)C2CC2)n1 [Example R27, N-(2-(2-(cyclopropanesuIfonamido)thiazol-4-yl)propan-2-yl)-[2,2′-bipyridine]-5-carboxamide]
< 0.1 µM | CC(C)(NC(=O)c1ccc(-c2cncc(Cl)c2)cc1)c1csc(NS(=O)(=O)C2CC2)n1 [Example R28]
< 0.1 µM | CC(C)(NC(=O)c1ccc(-c2cncc(C(F)(F)F)c2)cc1F)c1csc(NS(=O)(=O)C2CC2)n1 [Example R29]
0.1 to 1 µM | CC(C)(NC(=O)c1ccc(-c2cncc(Cl)c2)cc1F)c1csc(NS(=O)(=O)C2CC2)n1 [Example R30]
0.1 to 1 µM | CC(C)(NC(=O)c1ccc(-c2cncc(F)c2)cc1F)c1csc(NS(=O)(=O)C2CC2)n1 [Example R31]
0.1 to 1 µM | COc1cc(-c2cncc(C(F)(F)F)c2)ccc1C(=O)NC(C)(C)c1csc(NS(=O)(=O)C2CC2)n1 [Example R32]
1 to 10 µM | Cc1ncccc1-c1ccc(C(=O)NC(C)(C)c2csc(NS(=O)(=O)C3CC3)n2)cc1 [Example R33]
1 to 10 µM | CC(=O)c1cncc(-c2ccc(C(=O)NC(C)(C)c3csc(NS(=O)(=O)C4CC4)n3)cc2)c1 [Example R34]
< 0.1 µM | CC(C)(NC(=O)c1ccc(-c2cncc(C(F)(F)F)c2)cc1)c1csc(NS(=O)(=O)C2CC2)n1 [Example R35, N-(2-(2-(cyclopropanesulfonamido)thiazol-4-yl)propan-2-yl)-4-(5-(trifluoromethyl)pyridin-3-yl)benzamide]
0.1 to 1 µM | CC(C)(NC(=O)c1ccc(-c2cncc(F)c2)cc1)c1csc(NS(=O)(=O)C2CC2)n1 [Example R36, N-(2-(2-(cyclopropanesulfonamido)thiazol-4-yl)propan-2-yl)-4-(5-fluoropyridin-3-yl)benzamide]
< 0.1 µM | Cc1cncc(-c2ccc(C(=O)NC(C)(C)c3csc(NS(=O)(=O)C4CC4)n3)cc2)c1 [Example R37, N-(2-(2-(cyclopropanesulfonamido)thiazol-4-yl)propan-2-yl)-4-(5-methylpyridin-3-yl)benzamide]
0.1 to 1 µM | COc1cncc(-c2ccc(C(=O)NC(C)(C)c3csc(NS(=O)(=O)C4CC4)n3)cc2)c1 [Example R38, N-(2-(2-(cyclopropanesuIfonamido)thiazol-4-yl)propan-2-yl)-4-(5-methoxypyridin-3-yl)benzamide]
0.1 to 1 µM | CC(C)(NC(=O)c1ccc(-c2cccnc2)cc1)c1csc(NS(=O)(=O)C2CC2)n1 [Example R39, N-(2-(2-(cyclopropanesulfonamido)thiazol-4-yl)propan-2-yl)-4-(pyridin-3-yl)benzamide]
0.1 to 1 µM | CC(C)(NC(=O)c1ccc(-c2cccc(C(F)(F)F)c2)cc1)c1csc(NS(=O)(=O)C2CC2)n1 [Example R40, N-(2-(2-(cyclopropanesulfonamido)thiazol-4-yl)propan-2-yl)-3′-(trifluoromethyl)-[1,1′-biphenyl]-4-carboxamide]
0.1 to 1 µM | CCc1cncc(-c2ccc(C(=O)NC(C)(C)c3csc(NS(=O)(=O)C4CC4)n3)c(F)c2)n1 [Example R41, N-(2-(2-(cyclopropanesuIfonamido)thiazol-4-yl)propan-2-yl)-4-(6-ethylpyrazin-2-yl)-2-fluorobenzamide]
< 0.1 µM | CC(C)(NC(=O)c1ccc(-c2cncc(C(F)(F)F)n2)cc1F)c1csc(NS(=O)(=O)C2CC2)n1 [Example R42, N-(2-(2-(cyclopropanesuIfonamido)thiazol-4-yl)propan-2-yl)-2-fluoro-4-(6-(trifluoromethyl)pyrazin-2-yl)benzamide]
< 0.1 µM | CC(C)Oc1cncc(-c2ccc(C(=O)NC(C)(C)c3csc(NS(=O)(=O)C4CC4)n3)c(F)c2)n1 [Example R43, N-(2-(2-(cyclopropanesulfonamido)thiazol-4-yl)propan-2-yl)-2-fluoro-4-(6-isopropoxypyrazin-2-yl)benzamide]
0.1 to 1 µM | CC(C)(NC(=O)c1ccc(-c2cncc(OCC(F)(F)F)n2)cc1F)c1csc(NS(=O)(=O)C2CC2)n1 [Example R44, N-(2-(2-(cyclopropanesuIfonamido)thiazol-4-yl)propan-2-yl)-2-fluoro-4-(6-(2,2,2-trifluoroethoxy)pyrazin-2-yl)benzamide]
